Data published in patent US5627198A, “Heterocyclic amides” (Hafslund Nycomed Pharma Aktiengesellschaft, priority 1994, dated 1997).

What was measured:
bladder strips = assay: Effects on the bladder muscle in vitro (relaxant effect on bladder strips); set-up: species or system guinea pigs; settings: Cavia porcellus; guinea pig bladder strips; contractions triggered by electrical stimulation or KCl depolarization; read-out: A IC50 (concentration which reduces contraction of bladder strips by 50%)
Experimental: Effects on the bladder muscle in vitro
In these experiments, the IC50 value denotes the concentration of a substance which reduces contraction by 50%.
Male albino guinea pigs weighing about 400 g are killed painlessly by a blow to the neck and quickly exsanguinated. The abdominal cavity is opened and the bladder is carefully resectioned. It is placed in a Petri dish filled with Krebs solution, and surrounding connective and fatty tissue is removed. Two horizontal strips of tissue are prepared. With the aid of two threads which are attached to both ends of the strips of tissue, the strips are suspended in an organ bath. They are fastened at the bottom to a hook and at the top to an electric force transducer which is able to measure precisely contractions of 0-10 g in strength. The measured contractions are amplified by means of a bridge amplifier and are recorded with a thermal plotter. The signals obtained can also be integrated electronically on another plotter channel in order to quantify in-phase contractions.
(§1) The organ baths are filled with Krebs solution at 37° C. through which an O2 /CO2 mixture is bubbled thoroughly and which has the following composition (mmol/1): NaCl 118.4; KCl 4.7; CaCl2 2.5; KH2 PO4 1.2; MgSO4 1.2; NaHCO3 25; glucose 11.
The strips are stretched with a basic tone of about 0.5 g. After an equilibration time of about 30 minutes, one of the two strips is stimulated electrically every minute using built-in electrodes (period of stimulation 2 seconds, 30 Hz, 0.5 ms pulse width, 10 volts) in order to trigger short-term contractions. The other strip is made to exert in-phase contraction by depolarization (addition of […] KCl to the organ bath). Both the contractions triggered by electrical stimulation and those initiated by depolarization and occurring in the strips of bladder muscle quickly reach a plateau. As soon as this plateau is reached ("100% value"), the test substance is added to the organ bath, initially at 10w concentrations, for example 10^-8 M, and then in increasing doses at regular intervals, until the contractions reduce or the final concentration of 10^-4 M is reached. Each test substance is tested 2-4 times in this way.
(§2) For purposes of evaluation, the height of the contractions registered on the plotter paper is measured for each experiment after the action of each test concentration added. The IC50 value can be calculated in this way in relation to the original height of contractions before the addition of substance (100%). All of the IC50 values are shown in column A of Table 1.

rings of aorta = assay: Effects on vessel muscle in vitro (aorta rings, KCl depolarization); set-up: species or system rats; settings: rat aorta rings contracted with 25 mM KCl; read-out: B IC50 (rings of aorta)
Experimental: Effects on vessel muscle in vitro
Male rats weighing about 300 g are killed painlessly by a blow to the neck and quickly exsanguinated. The thoracic cavity is opened and the aorta is carefully resectioned. It is placed in a Petri dish filled with Krebs solution, and surrounding connective and fatty tissue is removed. Two rings are prepared. The rings are each suspended in an organ bath. They are attached at the bottom to a hook and at the top to an electrical force transducer which is able to measure precisely contractions of 0-10 grams in strength. The measured contractions are amplified by means of a bridge amplifier and recorded with a thermal plotter.
as §1
The rings are stretched with a basic tone of about 0.5 g. After an equilibration time of about 30 minutes, the rings are caused to undergo contraction by depolarization (addition of 25 mM KCl to the organ bath). The contractions of the rings of aorta, triggered by the depolarization, quickly reach a plateau. As soon as this plateau is reached ("100% value"), the test substance is added to the organ bath, initially at low concentrations, for example 10^-8 M, and then in increasing doses at regular intervals, until the contractions reduce or the final concentration of 10^-4 M is reached. Each test substance is tested 2-4 times in this way.
as §2, with “(100%).” for “(100%). All of the”, “B” for “A”

[1] = system: arterial blood pressure, conscious rat; assay: Effects on blood pressure in vivo, conscious rat; set-up: species or system Sprague-Dawley rats
Experimental: Effects on blood pressure in vivo
The rats were fasted overnight before the day of the experiment.
On the day of experiment, the rats were brought into the laboratory and their blood pressure and heart rate was recorded over about 30 minutes. The test substances, suspended in 0.5% methylcellulose, were then administered perorally via a stomach tube (volume: 3 ml/kg of body weight) and blood pressure and heart rate were measured over the next 6 hours. The percentage changes in the measured values in relation to the initial values were calculated and were determined for groups of 3-4 similarly treated animals.

Structure (SMILES)	IC50 (bladder strips) [µM]	IC50 (rings of aorta) [µM]	Reduction in diastolic pressure, % of initial value ([1]; 6 mg/kg peroral, 30 min)	Reduction in diastolic pressure, % of initial value ([1]; 6 mg/kg peroral, 60 min)	Reduction in diastolic pressure, % of initial value ([1]; 6 mg/kg peroral, 120 min)	Reduction in diastolic pressure, % of initial value ([1]; 6 mg/kg peroral, 15 min)	Reduction in diastolic pressure, % of initial value ([1]; 18 mg/kg peroral, 15 min)	Reduction in diastolic pressure, % of initial value ([1]; 18 mg/kg peroral, 30 min)	Reduction in diastolic pressure, % of initial value ([1]; 18 mg/kg peroral, 60 min)	Reduction in diastolic pressure, % of initial value ([1]; 18 mg/kg peroral, 120 min)	Reduction in diastolic pressure, % of initial value ([1]; 1 mg/kg peroral, 15 min)	Reduction in diastolic pressure, % of initial value ([1]; 1 mg/kg peroral, 30 min)	Reduction in diastolic pressure, % of initial value ([1]; 1 mg/kg peroral, 60 min)	Reduction in diastolic pressure, % of initial value ([1]; 1 mg/kg peroral, 120 min)
CC(O)(C(=O)Nc1ccc(C(=O)c2ccccc2)s1)C(F)(F)F (stereo not shown) [Example 1, N-[5-(Phenylcarbonyl)thien-2-yl]-3,3,3-tri-fluoro-2-hydroxy-2-methylpropanamide]	100	2.5	3 % of initial value	2 % of initial value	4 % of initial value	–	–	–	–	–	–	–	–	–
CC(O)(C(=O)Nc1ncc(C(=O)c2ccccc2)s1)C(F)(F)F (stereo not shown) [Example 2, N-[5-(Phenylcarbonyl)thiazol-2-yl]-3,3,3-trifluoro-2-hydroxy-2-methylpropanamide]	100	20	8 % of initial value	5 % of initial value	–	2 % of initial value	–	–	–	–	–	–	–	–
CC(O)(C(=O)Nc1nnc(C(=O)c2ccccc2)s1)C(F)(F)F (stereo not shown) [Example 3, N-[5-(Phenylcarbonyl)-1,3,4-thiadiazol-2-yl]-3,3,3-trifluoro-2-hydroxy-2-methylpropanamide]	50	10	3 % of initial value	2 % of initial value	4 % of initial value	–	–	–	–	–	–	–	–	–
CC(O)(C(=O)Nc1ccc(S(=O)(=O)c2ccccc2)s1)C(F)(F)F (stereo not shown) [Example 4, N-[5-(Phenylsulfonyl)thien-2-yl]-3,3,3-trifluoro-2-hydroxy-2-methylpropanamide]	1.7	1.2	5 % of initial value	4 % of initial value	6 % of initial value	1 % of initial value	0 % of initial value	8 % of initial value	10 % of initial value	15 % of initial value	–	–	–	–
CC1(C)Oc2ccc(C#N)cc2C(N2CCCC2=O)C1O (stereo not shown) [V, cromakalim, reference compound]	1	0.065	–	–	–	–	–	–	–	–	53 % of initial value	49 % of initial value	40 % of initial value	26 % of initial value
